Data published in PMC4390470 (Investigational new drugs, 2015).
Where two headings read alike, the source gives them in different places.

Key:
[1] = tested on: metastatic castration-resistant prostate cancer (mCRPC); conditions: cited from earlier work
[2] = in vivo
[3] = in vivo; remark: listed apart in the source
[4] = human, in vivo, 28 days

CC(=O)O[C@H]1CC[C@@]2(C)C(=CC[C@@H]3[C@@H]2CC[C@]2(C)C(c4cccnc4)=CC[C@@H]32)C1 [Abiraterone acetate]
Median OS ([1]; chemotherapy-naïve mCRPC, versus placebo 27.2, ref [16]): not reached | Median OS ([1]; mCRPC following docetaxel therapy, versus placebo 11.2, ref [15]): 15.8 months

CNC(=O)c1ccc(N2C(=S)N(c3ccc(C#N)c(C(F)(F)F)c3)C(=O)C2(C)C)cc1F [enzalutamide]
Median OS ([1]; chemotherapy-naïve mCRPC, versus placebo 31.0, ref [14]): not reached | Median OS ([1]; mCRPC following docetaxel therapy, versus placebo 13.6, ref [17]): 18.4 months

CC(=O)O[C@@]12CO[C@@H]1C[C@H](O)[C@@]1(C)C(=O)[C@H](O)C3=C(C)[C@@H](OC(=O)[C@H](O)[C@@H](NC(=O)OC(C)(C)C)c4ccccc4)C[C@@](O)([C@@H](OC(=O)c4ccccc4)[C@H]21)C3(C)C [docetaxel]
Tmax (human, plasma, other: orteronel oral (PO), docetaxel intravenous infusion): ~1 h | Mean plasma concentration-time profile, alone versus in combination (phase 2, orteronel with/without docetaxel and docetaxel with/without orteronel): similar | AUC0-tau and Cmax, alone versus in combination (phase 2, orteronel with/without docetaxel and vice versa): similar

CNC(=O)c1ccc2cc([C@@]3(O)CCn4cncc43)ccc2c1 [orteronel]
AUC0-tau and Cmax, alone versus in combination [2]: similar | Mean plasma concentration-time profile, alone versus in combination [2]: similar | Cardiovascular profile [3]: acceptable cardiovascular profile | Recommended phase 2 dose (RP2D) of orteronel in combination with DP [4]: 400 mg BID
